# Data published in PMC10202359, “Nicotinamide N-methyltransferase (NNMT) regulates the glucocorticoid signaling pathway during the early phase of adipogenesis” (Scientific Reports, 2023).
# Where two headings read alike, the source gives them in different places.
# What was measured:
# SET1b Complex = molecular target: T1, SET1b Complex (Homo sapiens, UniProt Q9UPS6); test: Methyltransferase Hot Spot radioisotope assay, SET1b Complex; type: biochemical
# T1 construct: purchased Reaction Biology Corporation
# Procedure: (§1) CC-410 was screened in biochemical assays for activity against a panel of 11 methyltransferases (MT) by using the radioisotope (3H-AdoMet) based MT Hot Spot Assay. All the assays were performed by Reaction Biology Corporation (RBC, Malven, PA, USA). Briefly CC-410 was incubated with the selected MTs, corresponding substrates, and radiolabeled SAM (S-Adenosyl-L-[methyl-3 H]methionine). The specific MTs assessed, and the corresponding substrates are as follows: DNMT1- Poly dl-dC, DNMT3a- Lambda DNA, DNMT3b- Lambda DNA, DOT1L- Nucleosomes, EZH2 Complex- Core Histone, METTL21A- HSPA8-[CTD], NRMT1- RCC1, PRMT3- Histone H4, PRMT5/MEP50- Histone H2A, SET1b -Core Histone Complex and SMYD2- Nucleosomes. Reaction mixtures were incubated and spotted onto filter papers, which were then washed to remove unreacted SAM, leaving the bound radiolabeled product. Detection of the radiolabeled, methylated product was performed via a nanoliter-scale radioisotope filter binding platform. […] For each assay, control compounds were included as positive controls for enzyme function and assay reproducibility. […] IC50 was calculated by non-linear least square fitting dose–response curve.
# EZH2 Complex = molecular target: T2, EZH2 Complex (Homo sapiens, UniProt Q15910); test: Methyltransferase Hot Spot radioisotope assay, EZH2 Complex; type: biochemical; details: 10-dose, threefold dilution; CC-410 from 300 μM, control from 100 μM; substrate Core Histone
# T2 construct: purchased Reaction Biology Corporation
# Procedure: as §1
# 3T3-L1 cells [1] = test: CellTiter-Blue cell viability assay, 3T3-L1; type: cell-based, mouse; details: highest concentration (1–25 uM tested), assessed at terminal differentiation
# Procedure: CellTiter-Blue® Cell Viability Assay (Promega) was used following the manufacturer’s instructions. 3T3-L1 cells were seeded at a density of 2 × 10^3 cells per well in 96-well plates and cultured till confluence in standard medium. Two-day post-confluent 3T3-L1 cells were induced with DIM and treated with 1, 5, 10 and 25 µM CC-410 along with an untreated control (0.5% DMSO) in 4 different conditions: every 48 h throughout the differentiation period; once in the first 20 h following DIM stimulation; once 48 h after DIM stimulation; or after the early differentiation phase. In all cases, cell viability was assessed at terminal differentiation. Cell viability percentages were calculated by normalizing the fluorescence recorder (560/590) for the treated samples over untreated controls.
# PRMT3 = PRMT3 (Homo sapiens, UniProt O60678); test: Methyltransferase Hot Spot radioisotope assay, PRMT3; type: biochemical; details: text and Fig. 4D curve fit; read-out: IC50 for PRMT3
# Procedure: as §1, with “The specific MTs assessed, and the corresponding substrates are as follows: DNMT1- Poly dl-dC, DNMT3a- Lambda DNA, DNMT3b- Lambda DNA, DOT1L- Nucleosomes, EZH2 Complex- Core Histone, METTL21A- HSPA8-[CTD], NRMT1- RCC1, PRMT3- Histone H4, PRMT5/MEP50- Histone H2A, SET1b -Core Histone Complex and SMYD2- Nucleosomes.” left out
# DNMT3a = molecular target: T3, DNMT3a (Homo sapiens, UniProt Q9Y6K1); test: Methyltransferase Hot Spot radioisotope assay, DNMT3a; type: biochemical; details: 10-dose, threefold dilution; CC-410 from 300 μM, control from 100 μM; substrate Lambda DNA
# T3 construct: purchased Reaction Biology Corporation
# Procedure: as §1
# 3T3-L1 cells [2] = test: Oil Red-O staining of adipocyte differentiation, 3T3-L1; type: cell-based, mouse; details: for reduction of adipogenesis (Oil Red-O quantification) compared to untreated control: treatment throughout the differentiation process (during adipogenesis)
# Procedure: (§2) 3T3-L1 Mouse Embryonic Fibroblasts were purchased from American Type Culture Collection (ATCC CL-173). The cells were propagated and maintained in Dulbecco’s modified Eagle’s medium (DMEM, Gibco) supplemented with 10% calf serum (FCS) at 37 °C in 5% CO2 atmosphere. Subconfluents cells were expanded and utilized for the subsequent experiments at the passages 3–6. To induce differentiation, 2-day post-confluent 3T3-L1 pre-adipocytes were cultured for 48 h with DIM (DMEM supplemented with 10% fetal bovine serum (FBS), 1.0 µM Dexamethasone (G. Biosciences), […] Insulin (Sigma) and 0.5 mM IBMX (Sigma). Two days after induction the DIM medium was removed and the cells were maintained in DMED supplemented with 10% FBS and […] Insulin, which was replaced every 48 h, until the cells became fully differentiated (8–10 days after induction). C3H10T1/2 cells were purchased from American Type Culture Collection (ATCC, clone 8, CCL-226, were grown and induced to differentiate following the same protocol, with cell cultures < 3 passages. Oil Red-O staining was used as previously described. Briefly, cells were fixed for 30 min with 4% formaldehyde, stained with filtered Oil Red solution (0.2% oil red in 40% 2-propanol) and washed 5 times with distilled water. The accumulation of fat droplets in the cells was visualized and photographed under an inverted microscope (DMi1, Leica). The dye was eluted with 100% 2-propanol and quantified spectroscopically at 510 nm (Synergy HT, Bio-Tek).
# C3H10T1/2 cells = test: Oil Red-O staining of adipocyte differentiation, C3H10T1/2; type: cell-based, mouse; details: 25 µM, first 48 h of DIM induction or throughout the period of differentiation
# Procedure: as §2, with “The accumulation of fat droplets in the cells was visualized and photographed under an inverted microscope (DMi1, Leica).” left out
# DNMT1 = DNMT1 (Homo sapiens, UniProt P26358); test: Methyltransferase Hot Spot radioisotope assay, DNMT1; type: biochemical; details: 10-dose, threefold dilution; CC-410 from 300 μM, control from 100 μM; substrate Poly dI-dC
# Procedure: as §1
# PRMT5/MEP50 = molecular target: T4, PRMT5/MEP50 (Homo sapiens, UniProt O14744); test: Methyltransferase Hot Spot radioisotope assay, PRMT5/MEP50; type: biochemical; details: 10-dose, threefold dilution; CC-410 from 300 μM, control from 100 μM; substrate Histone H2A
# T4 construct: purchased Reaction Biology Corporation
# Procedure: as §1
# T4 sequence (O14744 whole entry, species assumed): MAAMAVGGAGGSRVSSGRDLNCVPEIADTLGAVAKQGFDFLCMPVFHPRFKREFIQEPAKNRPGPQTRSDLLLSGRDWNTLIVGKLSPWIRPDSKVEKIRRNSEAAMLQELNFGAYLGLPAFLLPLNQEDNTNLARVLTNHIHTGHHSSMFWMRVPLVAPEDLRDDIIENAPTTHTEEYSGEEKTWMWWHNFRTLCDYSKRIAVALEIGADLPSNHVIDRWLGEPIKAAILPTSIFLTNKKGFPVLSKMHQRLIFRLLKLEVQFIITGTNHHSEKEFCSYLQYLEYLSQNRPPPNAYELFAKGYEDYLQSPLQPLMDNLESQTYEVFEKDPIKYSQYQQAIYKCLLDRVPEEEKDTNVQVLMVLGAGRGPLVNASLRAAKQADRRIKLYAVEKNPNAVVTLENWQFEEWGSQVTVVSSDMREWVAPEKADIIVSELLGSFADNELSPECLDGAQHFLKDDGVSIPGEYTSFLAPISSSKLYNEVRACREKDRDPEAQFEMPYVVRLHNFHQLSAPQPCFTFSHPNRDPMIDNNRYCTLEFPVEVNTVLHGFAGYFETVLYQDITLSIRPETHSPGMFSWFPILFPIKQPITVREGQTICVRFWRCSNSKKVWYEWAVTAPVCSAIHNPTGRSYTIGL
# T4 sequence (Q9BQA1 whole entry partner, species assumed): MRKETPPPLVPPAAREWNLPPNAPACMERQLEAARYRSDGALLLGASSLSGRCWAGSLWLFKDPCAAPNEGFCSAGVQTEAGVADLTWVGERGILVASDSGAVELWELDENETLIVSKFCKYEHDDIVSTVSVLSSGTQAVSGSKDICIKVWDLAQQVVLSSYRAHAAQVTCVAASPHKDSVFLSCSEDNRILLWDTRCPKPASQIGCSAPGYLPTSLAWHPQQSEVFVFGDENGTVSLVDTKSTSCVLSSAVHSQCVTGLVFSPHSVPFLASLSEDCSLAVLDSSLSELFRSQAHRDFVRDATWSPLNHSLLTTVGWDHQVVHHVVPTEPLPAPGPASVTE
# T2 sequence (Q15910 whole entry): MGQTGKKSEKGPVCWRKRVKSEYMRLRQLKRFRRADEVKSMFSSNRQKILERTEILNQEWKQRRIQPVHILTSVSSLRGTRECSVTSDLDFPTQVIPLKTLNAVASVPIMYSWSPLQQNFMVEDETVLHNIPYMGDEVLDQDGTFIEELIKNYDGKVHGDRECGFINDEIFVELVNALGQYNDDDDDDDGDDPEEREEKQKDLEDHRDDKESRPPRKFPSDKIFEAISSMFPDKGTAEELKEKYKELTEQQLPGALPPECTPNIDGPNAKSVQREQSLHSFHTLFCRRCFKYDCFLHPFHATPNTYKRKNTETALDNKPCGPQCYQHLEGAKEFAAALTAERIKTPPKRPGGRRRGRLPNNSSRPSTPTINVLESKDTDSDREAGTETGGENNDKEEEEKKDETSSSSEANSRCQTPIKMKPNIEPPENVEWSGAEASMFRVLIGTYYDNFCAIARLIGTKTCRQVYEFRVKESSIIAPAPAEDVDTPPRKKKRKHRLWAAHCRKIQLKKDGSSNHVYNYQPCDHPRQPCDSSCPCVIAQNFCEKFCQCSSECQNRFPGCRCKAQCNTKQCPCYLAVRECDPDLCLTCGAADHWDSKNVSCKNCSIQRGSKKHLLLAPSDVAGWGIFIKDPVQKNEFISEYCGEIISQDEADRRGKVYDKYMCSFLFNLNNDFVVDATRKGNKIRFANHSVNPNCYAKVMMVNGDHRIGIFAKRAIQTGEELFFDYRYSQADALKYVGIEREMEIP
# T2 sequence (O75530 whole entry partner): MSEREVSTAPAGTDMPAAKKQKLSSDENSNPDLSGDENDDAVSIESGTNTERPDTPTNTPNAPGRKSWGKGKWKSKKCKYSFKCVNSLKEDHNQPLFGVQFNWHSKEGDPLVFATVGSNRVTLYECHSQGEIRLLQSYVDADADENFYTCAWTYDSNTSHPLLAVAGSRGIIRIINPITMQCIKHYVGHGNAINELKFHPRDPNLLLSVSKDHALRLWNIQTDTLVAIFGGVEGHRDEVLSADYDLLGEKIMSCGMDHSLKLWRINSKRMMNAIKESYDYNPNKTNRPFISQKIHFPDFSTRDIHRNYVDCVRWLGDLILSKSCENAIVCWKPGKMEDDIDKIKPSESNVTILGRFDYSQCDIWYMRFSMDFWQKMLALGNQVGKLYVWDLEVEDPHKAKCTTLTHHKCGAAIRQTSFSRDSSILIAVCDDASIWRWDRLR
# T2 sequence (Q15022 whole entry partner): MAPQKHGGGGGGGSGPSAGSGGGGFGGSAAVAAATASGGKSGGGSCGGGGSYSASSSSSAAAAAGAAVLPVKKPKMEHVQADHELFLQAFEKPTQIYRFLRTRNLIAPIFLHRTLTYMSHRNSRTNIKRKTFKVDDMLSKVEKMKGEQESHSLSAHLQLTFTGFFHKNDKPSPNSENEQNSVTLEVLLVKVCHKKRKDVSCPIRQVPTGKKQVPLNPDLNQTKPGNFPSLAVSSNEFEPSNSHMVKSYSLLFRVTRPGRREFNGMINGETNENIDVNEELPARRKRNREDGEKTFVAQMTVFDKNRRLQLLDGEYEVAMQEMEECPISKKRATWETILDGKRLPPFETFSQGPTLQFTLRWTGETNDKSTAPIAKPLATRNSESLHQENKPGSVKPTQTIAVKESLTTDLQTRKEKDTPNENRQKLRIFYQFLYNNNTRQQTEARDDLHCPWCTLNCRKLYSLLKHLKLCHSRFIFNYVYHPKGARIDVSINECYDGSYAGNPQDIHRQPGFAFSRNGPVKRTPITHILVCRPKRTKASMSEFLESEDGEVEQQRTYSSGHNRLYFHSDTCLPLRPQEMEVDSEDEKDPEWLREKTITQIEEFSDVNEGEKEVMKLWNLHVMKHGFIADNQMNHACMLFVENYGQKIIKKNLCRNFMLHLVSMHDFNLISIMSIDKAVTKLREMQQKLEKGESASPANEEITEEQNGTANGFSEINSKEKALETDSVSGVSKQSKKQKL
# T2 sequence (Q09028 whole entry partner): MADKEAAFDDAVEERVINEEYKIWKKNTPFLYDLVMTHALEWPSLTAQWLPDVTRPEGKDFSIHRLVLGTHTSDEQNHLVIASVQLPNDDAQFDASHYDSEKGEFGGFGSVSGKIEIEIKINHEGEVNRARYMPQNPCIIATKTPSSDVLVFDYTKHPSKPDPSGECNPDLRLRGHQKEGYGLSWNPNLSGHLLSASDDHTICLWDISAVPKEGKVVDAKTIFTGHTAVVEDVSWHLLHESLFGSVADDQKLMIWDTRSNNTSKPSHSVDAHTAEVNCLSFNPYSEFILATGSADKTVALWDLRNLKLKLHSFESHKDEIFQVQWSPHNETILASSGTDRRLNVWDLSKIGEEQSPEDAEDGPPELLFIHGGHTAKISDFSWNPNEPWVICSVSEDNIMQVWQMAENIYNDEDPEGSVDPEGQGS
# T2 sequence (Q6ZN18 whole entry partner): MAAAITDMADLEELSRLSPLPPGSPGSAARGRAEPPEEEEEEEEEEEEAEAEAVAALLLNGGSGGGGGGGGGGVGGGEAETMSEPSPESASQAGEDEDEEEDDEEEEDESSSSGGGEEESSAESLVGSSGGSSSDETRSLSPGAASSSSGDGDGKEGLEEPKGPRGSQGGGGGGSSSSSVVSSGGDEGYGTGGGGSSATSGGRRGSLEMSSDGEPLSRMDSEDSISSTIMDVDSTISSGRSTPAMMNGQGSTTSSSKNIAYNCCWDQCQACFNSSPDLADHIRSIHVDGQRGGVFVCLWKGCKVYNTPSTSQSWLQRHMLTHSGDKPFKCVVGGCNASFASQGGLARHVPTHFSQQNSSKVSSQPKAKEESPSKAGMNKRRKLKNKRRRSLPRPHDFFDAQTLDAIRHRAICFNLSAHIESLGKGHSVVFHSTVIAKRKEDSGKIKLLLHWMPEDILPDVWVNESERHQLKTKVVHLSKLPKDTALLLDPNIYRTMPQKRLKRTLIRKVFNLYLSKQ
# Chain of PRMT3 (O60678 whole entry, species assumed): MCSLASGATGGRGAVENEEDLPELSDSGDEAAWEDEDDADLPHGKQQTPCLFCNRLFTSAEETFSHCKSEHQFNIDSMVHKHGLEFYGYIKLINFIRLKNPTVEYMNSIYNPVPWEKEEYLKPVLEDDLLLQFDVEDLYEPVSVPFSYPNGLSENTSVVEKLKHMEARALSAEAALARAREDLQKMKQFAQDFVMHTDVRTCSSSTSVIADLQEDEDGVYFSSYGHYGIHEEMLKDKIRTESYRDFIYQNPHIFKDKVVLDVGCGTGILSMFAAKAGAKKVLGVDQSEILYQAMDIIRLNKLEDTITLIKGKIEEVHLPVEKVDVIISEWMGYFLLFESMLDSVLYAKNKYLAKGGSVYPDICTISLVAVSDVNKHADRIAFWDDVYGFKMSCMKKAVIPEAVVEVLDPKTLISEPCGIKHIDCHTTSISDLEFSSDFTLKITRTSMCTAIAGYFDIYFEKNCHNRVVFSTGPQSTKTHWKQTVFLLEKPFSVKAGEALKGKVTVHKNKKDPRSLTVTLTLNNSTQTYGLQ
smiles,measurement,setting,value
"COC(=O)CCC(C)C1CCC2C3C(N)CC4CC(OC(C)=O)CCC4(C)[C@H]3CC(N)C12C (stereo in doubt) [CC-410, Methyl-(4S)-4-((3S,5S,7S,8S,10R,12R,13S,14R,17S)-3-acetoxy-7,12-diamino-10,13-dimethylhexadecahydro-1H-cyclopenta[a]phenanthren-17-yl) pentanoate]",IC50,"SET1b Complex; 10-dose, threefold dilution, CC-410 from 300 μM, control from 100 μM, substrate Core Histone, read-out: IC50* (M) SET1b Complex",0.000121 M
same,IC50,"SET1b Complex; text and Fig. 4D curve fit, read-out: IC50 for SET1b Complex",0.00012 M
same,IC50* (M) EZH2 Complex,EZH2 Complex,no inhibition or compound activity that could not be fitted to an IC50 curve
same,cell viability,3T3-L1 cells [1],only a slight reduction in cell viability
same,IC50,PRMT3,104 µM
same,IC50* (M) DNMT3a,DNMT3a,no inhibition or compound activity that could not be fitted to an IC50 curve
same,reduction of adipogenesis (Oil Red-O quantification) compared to untreated control,3T3-L1 cells [2]; 15 µM,60%
same,reduction of adipogenesis (Oil Red-O quantification) compared to untreated control,3T3-L1 cells [2]; 25 µM,80%
same,inhibition of adipogenesis,"3T3-L1 cells [2]; administered in the first 20 h after hormonal induction, highest concentration tested",50%
same,effect on adipogenesis,3T3-L1 cells [2]; continuously dispensed after the early phase of adipogenesis,no anti-adipogenic effect was evident
same,effect on adipogenesis,"3T3-L1 cells [2]; treatment during the 48 h of DEX stimulation, followed by IBMX 48 h",strongly impaired adipogenesis
same,effect on adipogenesis,3T3-L1 cells [2]; treatment during the early phase (from T0 to 48 h),"markedly reduced adipogenesis, with levels analogous to continuous treatment"
same,effect on adipogenesis,C3H10T1/2 cells,effectively inhibit adipogenesis
same,IC50* (M) DNMT1,DNMT1,no inhibition or compound activity that could not be fitted to an IC50 curve
same,IC50* (M) PRMT5/MEP50,PRMT5/MEP50,no inhibition or compound activity that could not be fitted to an IC50 curve
